In patent publication US9573964B2, “Oxygen linked pyrimidine derivatives” (CTI BIOPHARMA CORP., priority 2005, dated 2017) one finds GI50 and IC50 data, which are given here for five compounds.

Assay [1] concerns HL60 (acute myeloid leukemia cell line). The assay is described as follows: Cell-based proliferation assay for GI50, HL60. Particulars: Homo sapiens, HL-60; HL60 cells, 96 h treatment. On the procedure: (§1) Human cancer cell lines HL60 (acute myeloid leukemia cell line), Colo205 (colon adenocarcinoma cell line), HEL92.1.7 (erythroleukemia cell line) and MV4-11 (acute myeloid leukemia cell line) were obtained from ATCC. They were cultivated in the media according to the ATCC work instructions. Colo205 cells were seeded in 96-wells plate at 5000 cells per well. HEL92.1.7 and MV4-11 cells were seeded at 6000 cells per well while HL60 cells were seeded at 8000 cells per well in 96 well plate. The plates were incubated at 37° C., 5% CO2, for 24 h. Cells were treated with compounds at various concentrations for 96 h. Cell growth was then monitored using Celltiter96 Aqueous One Solution Cell Proliferation Assay from Promega (Madison Wis.). Dose response curves were plotted to determine GI50 values for the compounds using XL-fit (ID Business Solution, Emeryville, Calif.).

The subject of assay [2] is HEL92.1.7 (erythroleukemia cell line). The assay is described as follows: Cell-based proliferation assay for GI50, HEL92.1.7. As to conditions: Homo sapiens, HEL 92.1.7; HEL92.1.7 cells, 96 h treatment. How it is done: as §1
Assay [3] concerns the target T1, CDK2/CyclinA (Homo sapiens, UniProt P24941).
T1 construct: purchased Invitrogen PV3267
The assay is described as follows: In vitro kinase activity assay (PKLight), CDK2/Cyclin A. Format: biochemical. As to conditions: 0.5 μM ATP. How it is done: (§2) The recombinant enzymes (CDK2/CyclinA, FLT3, JAK2 and JAK2 V617F) were purchased from Invitrogen (Cat #PV3267, 3182, 4210 and 4347 respectively). All assays were carried out in 384-well white microtiter plates using the PKLight assay system from Cambrex (East Rutherford, N.J.). This assay platform is essentially a luminometric assay for the detection of ATP in the reaction using a luciferase-coupled reaction. For CDK2/Cyclin A assay, the reaction mixture consisted of the following components in 25 μL assay buffer (50 mM Hepes pH 7.5, 10 mM MgCl2, 5 mM MnCl2, 5 mM BGP, 1 mM DTT, 0.1 mM sodium orthovanadate), 1.4 μg/mL of CDK2/Cyclin A complex, 0.5 μM of RbING substrate (Invitrogen, Cat #PV2939) and 0.5 μM of ATP. The compounds were tested at 8 concentrations prepared from 4-fold serial dilution starting at 10 μM. The reaction was incubated at room temperature for 2 hr. 13 μL of PKLight ATP detection reagent was added and the reaction was incubated for 10 min. Luminescence signals were detected on a multi-label plate reader (Victor^2 V 1420, Perkin-Elmer). The other kinase assays were identical except for the following differences in reagents. For FLT3 assays, the reaction contained 2.0 μg/mL FLT3 enzyme, 5 μM of poly(Glu,Tyr) substrate (Sigma, Cat #P0275) and 4 μM of ATP. For JAK2 assays, the reaction contained 0.6 μg/mL of JAK2 enzyme, 2 μM of poly(Glu,Ala,Tyr) substrate (Sigma, Cat #P3899) and 0.2 μM of ATP. For JAK2 V617F mutant assays, the reaction contained 8.0 μg/mL of JAK2 mutant enzyme, 2 μM of poly(Glu,Ala,Tyr) substrate (Sigma, Cat #P3899) and 0.2 μM of ATP. The analytical software, Prism 4.0 (GraphPad Software Pte Ltd) was used to generate IC50 values from the data.

Assay [4] deals with T2, JAK2 (Homo sapiens, UniProt O60674).
T2 construct: purchased Invitrogen PV4210
T2 sequence (O60674 whole entry): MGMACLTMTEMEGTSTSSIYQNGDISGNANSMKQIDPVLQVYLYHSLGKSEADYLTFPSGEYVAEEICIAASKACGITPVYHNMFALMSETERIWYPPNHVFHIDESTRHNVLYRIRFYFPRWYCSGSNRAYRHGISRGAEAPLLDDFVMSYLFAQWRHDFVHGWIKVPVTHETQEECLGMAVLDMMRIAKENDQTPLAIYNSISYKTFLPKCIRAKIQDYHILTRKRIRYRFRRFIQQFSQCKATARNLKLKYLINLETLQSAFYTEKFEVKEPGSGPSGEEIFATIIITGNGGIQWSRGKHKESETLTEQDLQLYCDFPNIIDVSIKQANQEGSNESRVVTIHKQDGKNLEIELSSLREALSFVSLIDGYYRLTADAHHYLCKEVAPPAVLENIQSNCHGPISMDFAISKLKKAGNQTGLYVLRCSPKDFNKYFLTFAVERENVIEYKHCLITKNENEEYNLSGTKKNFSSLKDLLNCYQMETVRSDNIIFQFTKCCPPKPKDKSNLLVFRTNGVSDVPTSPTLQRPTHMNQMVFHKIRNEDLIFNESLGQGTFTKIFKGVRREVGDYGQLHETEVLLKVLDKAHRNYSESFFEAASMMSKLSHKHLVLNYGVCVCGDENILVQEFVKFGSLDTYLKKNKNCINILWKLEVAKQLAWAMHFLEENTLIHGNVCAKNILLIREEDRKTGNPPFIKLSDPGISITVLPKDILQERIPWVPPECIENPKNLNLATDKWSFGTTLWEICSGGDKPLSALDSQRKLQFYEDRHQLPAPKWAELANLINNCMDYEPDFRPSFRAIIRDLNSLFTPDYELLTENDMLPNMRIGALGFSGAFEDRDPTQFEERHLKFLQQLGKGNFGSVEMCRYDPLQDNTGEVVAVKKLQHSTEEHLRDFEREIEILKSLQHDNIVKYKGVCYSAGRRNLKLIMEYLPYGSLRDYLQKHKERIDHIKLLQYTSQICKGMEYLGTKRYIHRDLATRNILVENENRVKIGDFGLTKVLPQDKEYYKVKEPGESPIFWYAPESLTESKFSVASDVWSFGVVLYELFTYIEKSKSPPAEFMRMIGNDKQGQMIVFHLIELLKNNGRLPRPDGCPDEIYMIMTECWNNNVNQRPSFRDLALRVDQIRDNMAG
The assay is described as follows: In vitro kinase activity assay (PKLight), JAK2. Format: biochemical. On the procedure: as §2, with “All” for “The recombinant enzymes (CDK2/CyclinA, FLT3, JAK2 and JAK2 V617F) were purchased from Invitrogen (Cat #PV3267, 3182, 4210 and 4347 respectively). All”, “For JAK2 V617F mutant assays, the reaction contained 8.0 μg/mL of JAK2 mutant enzyme, 2 μM of poly(Glu,Ala,Tyr) substrate (Sigma, Cat #P3899) and 0.2 μM of ATP.” left out

For assay [5], the target named is T3, JAK2 V617F (Homo sapiens, UniProt O60674, V617F).
T3 construct: purchased Invitrogen PV4347
T3 sequence (O60674 whole entry V617F): as the sequence (O60674 whole entry) above, with V617F counted along it
The assay is described as follows: In vitro kinase activity assay (PKLight), JAK2 V617F mutant. In kind it is biochemical. How it is done: as §2, with “All” for “The recombinant enzymes (CDK2/CyclinA, FLT3, JAK2 and JAK2 V617F) were purchased from Invitrogen (Cat #PV3267, 3182, 4210 and 4347 respectively). All”, “For JAK2 V617F mutant assays, the reaction contained 8.0 μg/mL of JAK2 mutant enzyme, 2 μM of poly(Glu,Ala,Tyr) substrate (Sigma, Cat #P3899) and 0.2 μM of ATP.” left out

Assay [6] relates to MV4-11 (acute myeloid leukemia cell line). The assay is described as follows: Cell-based proliferation assay for GI50, MV4-11. As to conditions: Homo sapiens; MV4-11 cells, 96 h treatment. On the procedure: as §1
The target of assay [7] is T4, FLT3 (Homo sapiens, UniProt P36888).
T4 construct: purchased Invitrogen PV3182
T4 sequence (P36888 27-993): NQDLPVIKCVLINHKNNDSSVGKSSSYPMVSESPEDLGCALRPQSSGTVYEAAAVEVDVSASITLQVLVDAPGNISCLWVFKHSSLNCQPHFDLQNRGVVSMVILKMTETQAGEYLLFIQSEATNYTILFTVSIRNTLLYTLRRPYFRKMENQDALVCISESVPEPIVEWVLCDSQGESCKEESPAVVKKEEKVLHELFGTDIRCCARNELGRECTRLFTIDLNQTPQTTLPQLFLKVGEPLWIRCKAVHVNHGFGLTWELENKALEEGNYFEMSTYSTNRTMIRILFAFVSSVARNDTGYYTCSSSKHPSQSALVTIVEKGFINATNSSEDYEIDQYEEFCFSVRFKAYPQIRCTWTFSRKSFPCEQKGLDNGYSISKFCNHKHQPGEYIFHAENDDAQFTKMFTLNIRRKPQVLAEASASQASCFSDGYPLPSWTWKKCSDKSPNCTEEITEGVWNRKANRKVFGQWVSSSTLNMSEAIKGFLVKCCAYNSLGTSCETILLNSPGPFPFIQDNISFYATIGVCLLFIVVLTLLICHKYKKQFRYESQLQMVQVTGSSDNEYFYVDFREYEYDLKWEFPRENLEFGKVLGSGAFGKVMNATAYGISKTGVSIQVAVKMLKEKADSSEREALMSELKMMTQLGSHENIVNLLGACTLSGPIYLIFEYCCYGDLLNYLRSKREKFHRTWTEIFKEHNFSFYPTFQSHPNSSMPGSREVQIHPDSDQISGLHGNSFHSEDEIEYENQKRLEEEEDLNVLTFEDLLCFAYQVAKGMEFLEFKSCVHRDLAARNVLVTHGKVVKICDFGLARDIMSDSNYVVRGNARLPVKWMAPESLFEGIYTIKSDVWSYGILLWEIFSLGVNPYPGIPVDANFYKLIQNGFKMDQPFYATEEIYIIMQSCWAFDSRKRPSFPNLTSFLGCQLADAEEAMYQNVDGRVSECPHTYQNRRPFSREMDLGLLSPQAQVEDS
The assay is described as follows: In vitro kinase activity assay (PKLight), FLT3. Format: biochemical. How it is done:
as §2, with “All” for “The recombinant enzymes (CDK2/CyclinA, FLT3, JAK2 and JAK2 V617F) were purchased from Invitrogen (Cat #PV3267, 3182, 4210 and 4347 respectively). All”, “For JAK2 V617F mutant assays, the reaction contained 8.0 μg/mL of JAK2 mutant enzyme, 2 μM of poly(Glu,Ala,Tyr) substrate (Sigma, Cat #P3899) and 0.2 μM of ATP.” left out

For assay [8], the system named is Colo205 (colon adenocarcinoma cell line). The assay is described as follows: Cell-based proliferation assay for GI50, Colo205. As to conditions: Homo sapiens, COLO 205; Colo205 cells, 96 h treatment. How it is done: as §1

Consider `COc1ccc2cc1COC/C=C/COCc1cc(ccc1OCCN1CCCC1)Nc1nccc-2n1` [Compound 14], for which the 50% growth inhibitory concentration (GI50) in assay [1] was ≤ 1000 nM; in assay [2], ≤ 1000 nM; in assay [6] it was ≤ 1000 nM; in assay [8], 1000 to 5000 nM. Further, the half-inhibitory concentration (IC50) is > 5000 nM in assay [3], ≤ 1000 nM in assay [4], ≤ 1000 nM in assay [5] and ≤ 1000 nM in assay [7].

For the compound `CCN(CC)CCOc1ccc2cc1COC/C=C/COCc1cccc(c1)-c1ccnc(n1)N2` [Compound 15], the GI50 is ≤ 1000 nM in assay [1], 1000 to 5000 nM in assay [2], ≤ 1000 nM in assay [6] and 1000 to 5000 nM in assay [8]. Also, the half-maximal inhibitory concentration (IC50) was 1000 to 5000 nM in assay [3], ≤ 1000 nM in assay [4], ≤ 1000 nM in assay [5] and ≤ 1000 nM in assay [7].

Turning to `CCN(CC)CCOc1ccc2cc1COC/C=C/CCOc1cccc(c1)-c1ccnc(n1)N2` [Compound 19], the GI50 in assay [1], in assay [2], in assay [6] and in assay [8] was ≤ 1000 nM throughout. Besides, the IC50 in assay [3] was > 5000 nM; in assay [4], ≤ 1000 nM; in assay [5] it was ≤ 1000 nM; in assay [7] it was ≤ 1000 nM.

As for `CCN(CC)CCOc1ccc2cc1COC/C=C/CCOc1cc(ccc1OC)-c1ccnc(n1)N2` [Compound 20], the GI50 in assay [1] is 1000 to 5000 nM; in assay [2], > 5000 nM; in assay [6] it was ≤ 1000 nM; in assay [8], > 5000 nM. The IC50 in assay [3] was > 5000 nM; in assay [4], ≤ 1000 nM; in assay [5] it was ≤ 1000 nM; in assay [7] it was ≤ 1000 nM.

As to `CCN(CC)CCOc1ccc2cc1COC/C=C/CCOc1cccc(c1)-c1nc(ncc1C)N2` [Compound 29], the GI50 was ≤ 1000 nM in assay [1], 1000 to 5000 nM in assay [2] and ≤ 1000 nM in assay [6]. Also, the 50% inhibitory concentration (IC50) is > 5000 nM in assay [3], ≤ 1000 nM in assay [4], ≤ 1000 nM in assay [5] and ≤ 1000 nM in assay [7].
